Read-outs that look alike come from different tables or passages of the source.
Legend:
[1] = tested on: Human neuroblastoma cell line (SH-SY5Y); experiment: Microculture tetrazolium assay (MTA), cytotoxicity; conditions: Homo sapiens, 96 h
Text: (§1) The numerous antimitotic drugs already developed and therapeu- tically used for a large number of pathologies belong to different classes based on their chemical structure and other distinctive features. Antimitotic drugs usually target the tubulin/microtubule network of the cytoskeleton that is formed by assembly of cyto- plasmic tubulin dimers. The stability of the different microtubular structures varies considerably; some of their functions depend on their lability. The lability is augmented by the extreme sensitivity to various drugs. Several synthetic and natural compounds interact specifically with tubulin and/or microtubule, fundamentally destroying its dynamic character and leading to cell death. […] Because of their extensive clinical use, it is important to synthesize additional agents having at least the same biological activity. […] Nevertheless, it is unclear yet how the anti-calmodulin activity of these drugs is related to their desired and undesired pharmacological effects. […] The synthesis of the KAR derivatives are presented. […] Taxol, GTP and trifluoperazine were purchased from Sigma. All organic reagents for synthesis of the new compounds were obtained from Aldrich and were of the highest grade. All other chemicals were reagent grade commercial preparations. […] Tubulin was stored in 1 M sucrose, 10 mM sodium phosphate buffer, 0.5 mM magnesium chloride and 0.1 mM GTP, pH 7.0, at -80C and dialysed against the appropriate buffer before use. […] PFK, aldolase and glycerol-3-phosphate dehydrogenase- triosephosphate isomerase purified from rabbit skeletal muscle were purchased in ammonium sulphate suspensions from Sigma or Boehringer. The enzyme suspensions were centrifuged at 10 000g for 5 min. The pellets were suspended in the appropriate buffer, then the enzymes were gel filtered or dialysed in the same buffer to remove ammonium sulphate. […] (Figure 1B; R1 , CH3; R2 , CH2 CH2 Cl). […] After 2 h incubation at room temperature, 200 ml dried toluene was added to the reaction mixture. […] The mixture was stirred for 30 min. After separation of the organic phase, it was washed with water (3 x 30 ml) and dried with potassium sulphate and evaporated on a water bath of 35-40C at 20-27 hPa. The resulting material was chromatographed on silica gel (500 g, bead size of 0.040- 0.063 mm) column (30 mm x 500 mm) using ethyl acetate/ethanol (9:1) mixture as eluent. […] The mixture was kept for 4 h at room temperature and then evaporated on a water bath at 40C under a vacuum of 80 hPa to a final volume of 5-6 ml. […] (Figure 1B, R1 , CHO; R2 , CH2 CH2 Cl). […] Synthesis of KAR-4 [3-allyl-2,4-dioxo-3,5-spiro-oxazolidino- 4-deacetoxy-vinblastine] (Figure 1B; R1 , CH3; R2 , CH2 CH=CH2 ). […] NMR measurements were carried out on a Varian Unity plus-500 instrument (500 MHz for 1H and 125 MHz for 13C) in DMSO. Chemical shifts were determined relative to dTMS = 0.00 p.p.m. 1H and 13C signal assignments were verified by a concerted use of two-dimensional 1H-1H and 1H-13C shift correlation methods (DQFCOSY, HSQC, HMBC) and NOESY experiments. The gradient-enhanced DQFCOSY, HSQC, HMBC and NOESY experiments were recorded by using the standard spectrometer software package. A mixing time of tmix = 0.5 s was used for the NOESY experiments.

tubulin = experiment: Taxol-induced tubulin polymerization, turbidity at 350 nm; assay type: biochemical, calf; conditions: taxol-induced assembly, MES buffer pH 6.8, 37C; average of three independent measurements; read-out: Anti-tubulin effect, turbidity at 350 nm, IC50
Text: as §1

[2] = tested on: tubulin/microtubule, PFK-bundled microtubules; experiment: Tubulin polymerization with or without PFK (bundled vs single microtubules): turbidity and pelleting with SDS-PAGE; assay type: biochemical, calf; conditions: 10 M tubulin, 2 M drug, 20 µM taxol, SDS-PAGE of supernatant and pellet
Text: The numerous antimitotic drugs already developed and therapeu- tically used for a large number of pathologies belong to different classes based on their chemical structure and other distinctive features. Antimitotic drugs usually target the tubulin/microtubule network of the cytoskeleton that is formed by assembly of cyto- plasmic tubulin dimers. The stability of the different microtubular structures varies considerably; some of their functions depend on their lability. The lability is augmented by the extreme sensitivity to various drugs. Several synthetic and natural compounds interact specifically with tubulin and/or microtubule, fundamentally destroying its dynamic character and leading to cell death. […] Because of their extensive clinical use, it is important to synthesize additional agents having at least the same biological activity. […] Nevertheless, it is unclear yet how the anti-calmodulin activity of these drugs is related to their desired and undesired pharmacological effects. […] The synthesis of the KAR derivatives are presented. […] Taxol, GTP and trifluoperazine were purchased from Sigma. All organic reagents for synthesis of the new compounds were obtained from Aldrich and were of the highest grade. All other chemicals were reagent grade commercial preparations. […] Tubulin was stored in 1 M sucrose, 10 mM sodium phosphate buffer, 0.5 mM magnesium chloride and 0.1 mM GTP, pH 7.0, at -80C and dialysed against the appropriate buffer before use. […] PFK, aldolase and glycerol-3-phosphate dehydrogenase- triosephosphate isomerase purified from rabbit skeletal muscle were purchased in ammonium sulphate suspensions from Sigma or Boehringer. The enzyme suspensions were centrifuged at 10 000g for 5 min. The pellets were suspended in the appropriate buffer, then the enzymes were gel filtered or dialysed in the same buffer to remove ammonium sulphate. […] (Figure 1B; R1 , CH3; R2 , CH2 CH2 Cl). […] After 2 h incubation at room temperature, 200 ml dried toluene was added to the reaction mixture. […] The mixture was stirred for 30 min. After separation of the organic phase, it was washed with water (3 x 30 ml) and dried with potassium sulphate and evaporated on a water bath of 35-40C at 20-27 hPa. The resulting material was chromatographed on silica gel (500 g, bead size of 0.040- 0.063 mm) column (30 mm x 500 mm) using ethyl acetate/ethanol (9:1) mixture as eluent. […] The mixture was kept for 4 h at room temperature and then evaporated on a water bath at 40C under a vacuum of 80 hPa to a final volume of 5-6 ml. […] (Figure 1B, R1 , CHO; R2 , CH2 CH2 Cl). […] Synthesis of KAR-4 [3-allyl-2,4-dioxo-3,5-spiro-oxazolidino- 4-deacetoxy-vinblastine] (Figure 1B; R1 , CH3; R2 , CH2 CH=CH2 ). […] NMR measurements were carried out on a Varian Unity plus-500 instrument (500 MHz for 1H and 125 MHz for 13C) in DMSO. Chemical shifts were determined relative to dTMS = 0.00 p.p.m. 1H and 13C signal assignments were verified by a concerted use of two-dimensional 1H-1H and 1H-13C shift correlation methods (DQFCOSY, HSQC, HMBC) and NOESY experiments. The gradient-enhanced DQFCOSY, HSQC, HMBC and NOESY experiments were recorded by using the standard spectrometer software package. A mixing time of tmix = 0.5 s was used for the NOESY experiments. […] Mass spectrum was recorded on a Kratos MS 80 instrument using FAB.

calmodulin = target: T1, calmodulin (Bos taurus, UniProt P62157); parameters: method as in Molnar et al (1995); conditions: ref Molnar et al (1995); cited from earlier work
T1 construct: Calmodulin from bovine brain was purified to homogeneity using Phenyl-Sepharose (Pharmacia) chromatography; from tissue; host or cells: bovine brain

mouse leukaemia P388 = tested on: mouse leukaemia P388; parameters: method as in Orosz et al, 1997a; conditions: P388, 0.2 mg kg-1, eightfold treatment; ref Orosz et al, 1997a; cited from earlier work

Structure (SMILES): CC[C@]1(O)C[C@@H]2CN(CCc3c([nH]c4ccccc34)[C@@](C(=O)OC)(c3cc4c(cc3OC)N(C)[C@H]3[C@@](O)(C(=O)OC)[C@H](OC(C)=O)[C@]5(CC)C=CCN6CC[C@]43[C@@H]65)C2)C1 [Vinblastine, vinblastine, reference compound]
- IC50 ([1]; read-out: Cytotoxicity MTA IC50): 5e-09 M
- IC50 ([1]; read-out: Cytotoxicity MTA IC50 (M)): 5e-09 M
- tubulin partition in pelleting experiment, without PFK ([2]; no PFK): practically all tubulin appears in the super- natants
- tubulin partition in pelleting experiment, with PFK (bundled microtubules) ([2]; 2 M PFK): significant amount of tubulins were assembled into microtubules
- Anti-calmodulin activity: Efficiency (%) (calmodulin): 61%
- T/C (mouse leukaemia P388): 199%

— paper PMC2362735, “New semisynthetic vinca alkaloids: chemical, biochemical and cellular studies” (British Journal of Cancer, 1999)
